According to US7160888B2, “[1,8]naphthyridin-2-ones and related compounds for the treatment of schizophrenia” (Warner Lambert Company LLC, priority 2003, dated 2007):

Target: D2 receptor (Homo sapiens, UniProt P14416)
Experiment: [3H]Thymidine uptake assay for D2 intrinsic activity
Assay type: cell-based
Details: Table 1; test compound 1 μM; 1 μM Quinpirole = 100% intrinsic activity

D2 receptor, sequence (P14416 whole entry): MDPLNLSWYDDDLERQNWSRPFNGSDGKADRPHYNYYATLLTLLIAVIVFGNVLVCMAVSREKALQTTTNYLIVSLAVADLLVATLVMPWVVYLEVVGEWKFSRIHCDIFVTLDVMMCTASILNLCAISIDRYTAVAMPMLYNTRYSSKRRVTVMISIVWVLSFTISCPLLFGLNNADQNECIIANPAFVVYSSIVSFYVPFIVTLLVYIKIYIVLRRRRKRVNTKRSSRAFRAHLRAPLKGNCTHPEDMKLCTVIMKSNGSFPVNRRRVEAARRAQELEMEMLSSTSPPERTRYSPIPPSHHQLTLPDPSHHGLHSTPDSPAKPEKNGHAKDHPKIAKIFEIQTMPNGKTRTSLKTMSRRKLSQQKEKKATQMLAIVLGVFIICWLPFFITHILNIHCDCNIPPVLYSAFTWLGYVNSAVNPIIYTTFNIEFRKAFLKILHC

| SMILES | Emax at 1 µM [%] |
| --- | --- |
| CC(=O)c1ccc(N2CCN(CCCCOc3ccc4c(n3)NC(=O)CC4)CC2)c2ccccc12 [Example A81, 7-{4-[4-(4-Acetyl-naphthalen-1-yl)-piperazin-1-yl]-butoxy}-3,4-dihydro-1H-[1,8]naphthyridin-2-one] | 4 |
| O=C1CCc2ccc(OCCCCN3CCN(c4ccccc4-c4ccccc4)CC3)nc2N1 [Example A11, 7-[4-(4-Biphenyl-2-yl-piperazin-1-yl)-butoxy]-3,4-dihydro-1H-[1,8]naphthyridin-2-one] | 6 |
| Cn1c(=O)ccc2ccc(OCCCCN3CCN(c4cccc5ccccc45)CC3)nc21 [Example B68, 1-Methyl-7-[4-(4-naphthalen-1-yl-piperazin-1-yl)-butoxy]-1H-[1,8]naphthyridin-2-one] | 17 |
| O=C1CCc2ccc(OCCCCN3CCN(c4cc(Cl)ccc4Cl)CC3)nc2N1 [Example A12, 7-{4-[4-(2,5-Dichloro-phenyl)-piperazin-1-yl]-butoxy}-3,4-dihydro-1H-[1,8]naphthyridin-2-one] | 11 |
| CC(=O)c1c(Cl)cccc1N1CCN(CCCCOc2ccc3ccc(=O)[nH]c3n2)CC1 [Example B3, 7-{4-[4-(2-Acetyl-3-chloro-phenyl)-piperazin-1-yl]-butoxy}-1H-[1,8]naphthyridin-2-one] | 8 |
| COc1cccc(N2CCN(CCCCOc3ccc4c(n3)NC(=O)CC4)CC2)c1OC [Example A19, 7-{4-[4-(2,3-Dimethoxy-phenyl)-piperazin-1-yl]-butoxy}-3,4-dihydro-1H-[1,8]naphthyridin-2-one] | 10 |
| O=c1ccc2ccc(OCCCCN3CCN(c4cccc5c(F)cccc45)CC3)nc2[nH]1 [Example B51, 7-{4-[4-(5-Fluoro-naphthalen-1-yl)-piperazin-1-yl]-butoxy}-1H-[1,8]naphthyridin-2-one] | 36 |
| O=c1ccc2ccc(OCCCCN3CCN(c4ncccn4)CC3)nc2[nH]1 [Example B30, 7-[4-(4-Pyrimidin-2-yl-piperazin-1-yl)-butoxy]-1H-[1,8]naphthyridin-2-one] | 83 |
| O=C1CCc2c(C(F)(F)F)cc(OCCCCN3CCN(c4cccc5c4CCCC5)CC3)nc2N1 [Example E15, 7-{4-[4-(5,6,7,8-Tetrahydro-naphthalen-1-yl)-piperazin-1-yl]-butoxy}-5-trifluoromethyl-3,4-dihydro-1H-[1,8]naphthyridin-2-one] | 20 |
| CC1(C)Cc2ccc(OCCCCN3CCN(c4cccc(Cl)c4Cl)CC3)nc2NC1=O [Example D13, 7-{4-[4-(2,3-Dichloro-phenyl)-piperazin-1-yl]-butoxy}-3,3-dimethyl-3,4-dihydro-1H-[1,8]naphthyridin-2-one] | 19 |
| O=c1ccc2ccc(OCCCCN3CCN(c4ccc(F)c(Cl)c4)CC3)nc2[nH]1 [Example B14, 7-{4-[4-(3-Chloro-4-fluoro-phenyl)-piperazin-1-yl]-butoxy}-1H-[1,8]naphthyridin-2-one] | 37 |
| O=c1ccc2ccc(OCCCCN3CCN(c4cccc5c4CCCC5(F)F)CC3)nc2[nH]1 [Example B43, 7-{4-[4-(5,5-Difluoro-5 6,7,8-tetrahydro-naphthalen-1-yl)-piperazin-1-yl]-butoxy}-1H-[1,8]naphthyridin-2-one] | 18 |
| CC(C)Oc1ccc(Cl)cc1N1CCN(CCCCOc2ccc3ccc(=O)[nH]c3n2)CC1 [Example B9, 7-{4-[4-(5-Chloro-2-isopropoxy-phenyl)-piperazin-1-yl]-butoxy}-1H-[1,8]naphthyridin-2-one] | 23 |
| O=C1CCc2ccc(OCCCCN3CCN(c4cccc(C5CC5)n4)CC3)nc2N1 [Example A46, 7-{4-[4-(6-Cyclopropyl-pyridin-2-yl)-piperazin-1-yl]-butoxy}-3,4-dihydro-1H-[1,8]naphthyridin-2-one] | 41 |
| CCc1cccc(N2CCN(CCCCOc3nc(C)c4ccc(=O)[nH]c4n3)CC2)n1 [Example H7, 2-{4-[4-(6-Ethyl-pyridin-2-yl)-piperazin-1-yl]-butoxy}-4-methyl-8H-pyrido[2,3-d]pyrimidin-7-one] | 46 |
| CC(=O)c1cccc(N2CCN(CCCCOc3ccc4c(n3)NC(=O)CC4)CC2)c1 [Example A33, 7-{4-[4-(3-Acetyl-phenyl)-piperazin-1-yl]-butoxy}-3,4-dihydro-1H-[1,8]naphthyridin-2-one] | 31 |
| O=c1ccc2ccc(OCCCCN3CCN(c4cccc5cccc(Cl)c45)CC3)nc2[nH]1 [Example B59, 7-{4-[4-(8-Chloro-naphthalen-1-yl)-piperazin-1-yl]-butoxy}-1H-[1,8]naphthyridin-2-one] | 37 |
| CC1(C)CC(=O)Nc2nc(OCCCCN3CCN(c4cccc(Cl)c4Cl)CC3)ccc21 [Example D17, 7-{4-[4-(2,3-Dichloro-phenyl)-piperazin-1-yl]-butoxy}-4,4-dimethyl-3,4-dihydro-1H-[1,8]naphthyridin-2-one] | 29 |
| O=c1ccc2cnc(NCCCCN3CCN(c4cccc(Cl)c4Cl)CC3)cc2[nH]1 [Example I18, 7-{4-[4-(2,3-Dichloro-phenyl)-piperazin-1-yl]-butylamino}-1H-[1,6]naphthyridin-2-one] | 54 |

Same assay, conditions: Table 2; test compound 1 μM; 1 μM Quinpirole = 100% intrinsic activity

| SMILES | Emax at 1 µM [%] |
| --- | --- |
| COc1ccc2cccc(N3CCN(CCCCOc4ccc5c(n4)NC(=O)CC5)CC3)c2n1 [Example A41′, 7-{4-[4-(2-Methoxy-quinolin-8-yl)-piperazin-1-yl]-butoxy}-3,4-dihydro-1H-[1,8]naphthyridin-2-one] | 32 |
| O=c1ccc2cnc(OCCCCN3CCN(c4cccc5c4OCCC5)CC3)nc2[nH]1 [Example G2′, 2-[4-(4-Chroman-8-yl-piperazin-1-yl)-butoxy]-8H-pyrido[2,3-d]pyrimidin-7-one] | 21 |
| CC1(C)Cc2cccc(N3CCN(CCCCOc4ncc5ccc(=O)[nH]c5n4)CC3)c2O1 [Example G8′, 2-{4-[4-(2,2-Dimethyl-2,3-dihydro-benzofuran-7-yl)-piperazin-1-yl]-butoxy}-8H-pyrido[2,3-d]pyrimidin-7-one] | 32 |
| CC1(C)CC(=O)Nc2nc(OCCCCN3CCN(c4cccc5ccoc45)CC3)ccc21 [Example C5′, 7-[4-(4-Benzofuran-7-yl-piperazin-1-yl)-butoxy]-4,4-dimethyl-3,4-dihydro-1H-[1,8]naphthyridin-2-one] | 23 |
| O=C1CCc2ccc(OCCCCN3CCN(c4cccc5cc[nH]c45)CC3)nc2N1 [Example A24′, 7-{4-[4-(1H-Indol-7-yl)-piperazin-1-yl]-butoxy}-3,4-dihydro-1H-[1,8]naphthyridin-2-one] | 6 |
| O=C1CCc2ccc(OCCCCN3CCN(c4cccc5ncccc45)CC3)nc2N1 [Example A35′, 7-[4-(4-Quinolin-5-yl-piperazin-1-yl)-butoxy]-3,4-dihydro-1H-[1,8]naphthyridin-2-one] | 20 |
| Cc1nc(OCCCCN2CCN(c3cccc4c3NC(=O)CC4)CC2)nc2[nH]c(=O)ccc12 [Example G14′, 4-Methyl-2-{4-[4-(2-oxo-1,2,3,4-tetrahydro-quinolin-8-yl)-piperazin-1-yl]-butoxy}-8H-pyrido[2,3-d]pyrimidin-7-one] | 44 |
| O=c1ccc2cnc(OCCCCN3CCN(c4cccc5c4OCCO5)CC3)cc2[nH]1 [Example H7′, 7-{4-[4-(2,3-Dihydro-benzo[1,4]dioxin-5-yl)-piperazin-1-yl]-butoxy}-1H-[1,6]naphthyridin-2-one] | 17 |
